Key:
[1] = system: ICR male mice; test: Reserpine-induced Parkinson's disease model mouse; assay type: in vivo; conditions: reserpine-treated mice, 10 mg/kg s.c.
Description: Reserpine-Induced Parkinson's Disease Model Mouse
ICR male mice (5 weeks old, Japan SLC) were obtained, and used after an acclimation period (5 to 12 days).
PD model was prepared with reference to the report of Hille et al. (Exp. Neurol., 2001, 172:189). It was prepared by intraperitoneally administering reserpine (5 mg/kg) 18 to 24 hours before the start of the test. The test was performed by subcutaneously administering a test compound to each mouse on the day of the test, immediately putting the mouse into a cage for monitoring locomotor activity, and measuring the migration distance over 60 minutes.

[2] = molecular target: T1, human opioid μ receptor (Homo sapiens, UniProt P35372); test: Opioid receptor function test (Lance Ultra cAMP Kit), μ receptor; assay type: cell-based
T1 construct: host or cells: CHO cells
T1 sequence (P35372 whole entry): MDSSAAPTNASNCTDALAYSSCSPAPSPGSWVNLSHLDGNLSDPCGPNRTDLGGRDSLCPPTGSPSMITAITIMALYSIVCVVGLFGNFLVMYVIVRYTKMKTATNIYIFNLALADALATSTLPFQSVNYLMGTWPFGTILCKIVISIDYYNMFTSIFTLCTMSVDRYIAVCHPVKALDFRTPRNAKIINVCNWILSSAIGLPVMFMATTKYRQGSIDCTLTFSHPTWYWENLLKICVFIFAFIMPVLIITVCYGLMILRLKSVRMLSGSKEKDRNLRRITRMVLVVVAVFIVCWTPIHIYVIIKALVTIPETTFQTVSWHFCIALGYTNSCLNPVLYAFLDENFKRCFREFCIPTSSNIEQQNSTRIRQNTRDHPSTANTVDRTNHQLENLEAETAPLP
Description: Opioid Receptor Function Test
The functional activities of the compounds provided by the present invention on the μ, δ, and κ opioid receptors were investigated.
The test was performed by using Lance Ultra cAMP Kit (PerkinElmer) according to a method predetermined for the kit. In the evaluation of the agonistic activity, CHO cells expressing each of the human opioid receptors (δ, μ, and κ, accession numbers and catalog numbers are mentioned below) and 10 μM of each test compound were reacted for 30 minutes in an assay buffer (1× HBSS, […], pH 7.4, […] (isobutylmethylxanthine), 7.5% BSA) in the presence of forskolin. Subsequently, the cAMP detection reagent included in the kit was added, and 1 hour afterward, time-resolved fluorescence measurement was performed by using the EnVision plate reader (PerkinElmer). The test compounds and the control drugs (δ: SNC80, μ: DAMGO, κ: U-69593) were evaluated in a concentration range of 10^−12 to 10^−5 M, a dose-response curve of each test compound was obtained from the fluorescence values at 665 nm, and EC50 value and the Emax value were calculated. The Emax value was calculated as a ratio of the maximum reaction of the test compound to the maximum reaction of each control drug, which is taken as 100%.
• δ: Catalog No. CT4607, Accession No. NM_000911.2 • μ: Catalog No. CT4605, Accession No. NM_000914 • κ: Catalog No. CT4606, Accession No. NM_000912 (ChanTest Corporation)

[3] = Metabolic stability test; assay type: in vitro ADME; conditions: liver microsomes; human hepatic microsomes, 0 to 60 minutes; read-out: metabolic clearance CLint
Description: Human hepatic microsomes and a test substance were reacted for a certain period of time (0 to 60 minutes). The test substance, which was not metabolized in the reaction sample, was measured, and remaining ratio was calculated. The test substance-remaining ratio at the time when the reaction time is 0 hour is taken as 100%. The remaining ratio after incubation was plotted against time as a log-linear plot to obtain a regression line (y=100 e^−kt, k=inclination of straight line: clearance rate constant), and metabolic clearance CLint (mL/min/kg) was calculated by using the following equation. CLint*=k(−min)×52.5(mg MS protein/g liver)×26(g liver/kg)/MS protein (mg MS protein/mL) • *: Davies, B. and Morris T., Physiological parameters in laboratory animals and humans, Pharm. Res., 10(7)1093-1095, 1993 (Test Results)

[4] = system: Wistar male rats; test: Rat elevated plus maze test; assay type: in vivo; conditions: oral, 3 mg/kg, 2 hours before test (FIG. 6)
Description: Rat Elevated Plus Maze Test
Anxiolytic effects of the compounds provided by the present invention were investigated by the rat elevated plus maze test.
For the test, 7 to 9 weeks old Wistar male rats were used. […] Each test substance was dissolved in a 4.5% aqueous solution of cyclodextrin, and orally administered 2 hours before the start of the test. The test data were automatically analyzed by using video image action analysis software (Smart3.0, PanLab S.L., PanLab), and wall-less running route staying time ratio (%) was calculated.

[5] = molecular target: T2, hERG potassium channel (Homo sapiens, UniProt Q12809); test: hERG potassium channel inhibition test (automatic patch clamp); assay type: cell-based; conditions: pH 7.4, hERG-expressing CHO cells, tail current, read-out: hERG channel inhibitory action
T2 construct: host or cells: CHO cells
T2 sequence (Q12809 whole entry): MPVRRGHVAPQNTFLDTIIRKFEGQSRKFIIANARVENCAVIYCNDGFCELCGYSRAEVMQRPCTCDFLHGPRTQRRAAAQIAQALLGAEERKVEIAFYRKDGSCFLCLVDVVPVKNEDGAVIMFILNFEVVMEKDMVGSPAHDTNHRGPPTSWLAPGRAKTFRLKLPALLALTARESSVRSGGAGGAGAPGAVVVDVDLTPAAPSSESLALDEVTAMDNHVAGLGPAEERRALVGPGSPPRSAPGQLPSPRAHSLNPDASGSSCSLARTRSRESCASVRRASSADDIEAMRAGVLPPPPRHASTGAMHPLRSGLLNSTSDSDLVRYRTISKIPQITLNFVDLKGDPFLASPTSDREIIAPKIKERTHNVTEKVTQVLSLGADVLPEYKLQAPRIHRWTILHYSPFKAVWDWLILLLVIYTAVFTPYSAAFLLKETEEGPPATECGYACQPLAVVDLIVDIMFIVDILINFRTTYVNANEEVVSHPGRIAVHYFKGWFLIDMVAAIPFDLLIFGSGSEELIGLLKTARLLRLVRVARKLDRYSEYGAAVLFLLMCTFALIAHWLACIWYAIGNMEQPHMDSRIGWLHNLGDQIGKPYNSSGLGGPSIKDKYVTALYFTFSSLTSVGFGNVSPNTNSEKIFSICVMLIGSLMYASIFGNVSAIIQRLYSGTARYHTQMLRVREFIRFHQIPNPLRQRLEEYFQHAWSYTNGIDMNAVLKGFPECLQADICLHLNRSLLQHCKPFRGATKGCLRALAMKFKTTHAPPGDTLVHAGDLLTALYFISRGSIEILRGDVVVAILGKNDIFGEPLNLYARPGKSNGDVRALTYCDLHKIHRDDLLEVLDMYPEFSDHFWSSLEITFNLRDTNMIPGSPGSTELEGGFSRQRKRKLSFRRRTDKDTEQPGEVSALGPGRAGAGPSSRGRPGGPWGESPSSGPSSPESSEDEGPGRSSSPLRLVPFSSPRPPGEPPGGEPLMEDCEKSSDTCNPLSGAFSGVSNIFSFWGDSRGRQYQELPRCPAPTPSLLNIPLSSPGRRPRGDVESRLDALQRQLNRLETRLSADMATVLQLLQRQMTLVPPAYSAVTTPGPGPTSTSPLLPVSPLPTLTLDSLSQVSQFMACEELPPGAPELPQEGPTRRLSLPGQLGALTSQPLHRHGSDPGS
Description: hERG (Human Ether-A-Go-Go-Related Gene) Potassium Channel Inhibition Test
The test was performed with Port-a-Patch automatic patch clump apparatus (Nanion Technologies) using hERG channel-stably expressing CHO cells (purchased from Channelopathy Foundation). The membrane potential of the cells was maintained at −80 mV, then there were applied a depolarization pulse at +20 mV for 1.5 seconds, and a following test pulse at −50 mV for 1.5 seconds at a frequency of 1 time per 10 seconds, and the hERG current was confirmed as a tail current induced by the test pulse. The test compound was dissolved in an extracellular fluid (137 mM NaCl, 4 mM KCl, 1.8 mM CaCl2, 1 mM MgCl2, 10 mM D(+)-glucose, 10 mM HEPES, pH 7.4), and the solution was refluxed at room temperature for 5 minutes. The inhibition ratio was obtained from the ratio of the tail current value observed after the compound was applied based on the tail current value observed before the compound was applied, which was taken as 100%.

[6] = system: SD male rats; test: Rat cerebral infarction-induced overactive bladder model (cystometry); assay type: in vivo; conditions: for Pressure at the time of urination / Single urination amount / Static pressure / Urination interval: cumulative, Mean ± S.E. (n = 5)
Description: Evaluation Using Rat Cerebral Infarction-Induced Overactive Bladder Model
A transient middle cerebral artery occlusion model was prepared by using 8 weeks old SD male rats under isoflurane inhalation anesthesia. On the next day, the cervix was slightly cut open again under the isoflurane inhalation anesthesia, and a catheter for administration was fixed in the jugular vein, and led to the back. A cystometry operation was also performed, and the other end of a cannula inserted into the bladder was led to the back, and connected to a cannula swivel.
On the day 4 after the cerebral ischemia operation, cystometry was performed under no anesthesia and with no restraint. Intravesical pressure was measured for the stable period, then a medium was intravenously administered, and the value of the pressure was measured over about 30 minutes as a value before test substance administration. Then, the test substance was cumulatively and intravenously administered from the lowest dose at intervals of about 30 minutes, and the value was measured for about 30 minutes after each administration. For the rats determined to show pollakiuria (urination interval was 10 minutes or shorter) in the measurement before the administration, static intravesical pressure, pressure at the time of urination, urination interval, and single urination amount were measured at each time point.

Structure (SMILES): O=C(c1cccc(=O)[nH]1)N1C[C@H]2C[C@@]34CC[C@@H]1[C@@H]2[C@@]31CCN(CC2CC2)[C@@H]4Cc2ccc(O)cc21 [Example 7, 6-((1S,3aR,5aS,6R,11bR,11cS)-14-(cyclopropylmethyl)-10-hydroxy-2,3,3a,4,5,6,7,11c-octahydro-1H-6,11b-(epiminoethano)-1,5a-methanonaphtho[1,2-e]indole-3-carbonyl)pyridin-2(1H)-one]
- exploratory behavior ([1]; 60 minutes): significantly increased
- standing up behavior ([1]; not significant (P=0.16)): tendency of increase
- EC50 ([2]; CHO cells expressing human μ receptor, cAMP, in the presence of forskolin, read-out: μ receptor EC50 value): > 1 nM
- Emax ([2]; ratio to maximum reaction of control drug DAMGO taken as 100%): 10%
- CLint scaled [3]: 5.6 mL/min/kg
- wall-less running route staying time ratio [4]: significantly increased
- inhibition at 5 min, 10 µM [5]: < 50%
- Pressure at the time of urination ([6]; 0.01 mg/kg intravenous): 42.9 ± 10.7 mmHg
- Single urination amount ([6]; 0.01 mg/kg intravenous): 0.310 ± 0.068 g
- Static pressure ([6]; 0.01 mg/kg intravenous): 9.5 ± 1.3 mmHg
- Urination interval ([6]; 0.01 mg/kg intravenous): 450.7 ± 76.9 s
- Pressure at the time of urination ([6]; 0.1 mg/kg intravenous): 42.8 ± 9.7 mmHg
- Single urination amount ([6]; 0.1 mg/kg intravenous): 0.403 ± 0.129 g
- Static pressure ([6]; 0.1 mg/kg intravenous): 9.6 ± 1.1 mmHg
- Urination interval ([6]; 0.1 mg/kg intravenous): 547.4 ± 122.5 s
- effect on single urination amount (in words) ([6]; 0.01 and 0.1 mg/kg intravenous): dose-dependently increasing tendency
- effect on urination interval (in words) ([6]; 0.01 and 0.1 mg/kg intravenous): dose-dependently increasing tendency
- effect on pressure at the time of urination (in words) ([6]; all the doses): did not affect
- effect on static intravesical pressure (in words) ([6]; all the doses): did not affect

From patent publication US11633392B2 (priority 2016, dated 2023)
